Test results reported in PMC8550792, “Evolution of kinase polypharmacology across HSP90 drug discovery” (Cell Chemical Biology, 2021).

Legend:
Test in all cases: biochemical
Type in all cases: biochemical
382 unique human kinases [1] = molecular target: T1, 382 unique human kinases (Homo sapiens, UniProt Q9BQI3); conditions: EIF2AK1; read-out: Control Compound IC50*
T1 construct: purchased Reaction Biology (HotSpot contract assay)

382 unique human kinases [2] = molecular target: T2, 382 unique human kinases (Homo sapiens, UniProt P27361); conditions: ERK1; read-out: Control Compound IC50*
T2 construct: purchased Reaction Biology (HotSpot contract assay)

382 unique human kinases [3] = molecular target: T3, 382 unique human kinases (Homo sapiens, UniProt Q6IQ55); conditions: TTBK2; read-out: Control Compound IC50*
T3 construct: purchased Reaction Biology (HotSpot contract assay)

382 unique human kinases [4] = molecular target: T4, 382 unique human kinases (Homo sapiens, UniProt Q8TDX7); conditions: NEK7; read-out: Control Compound IC50*
T4 construct: purchased Reaction Biology (HotSpot contract assay)

382 unique human kinases [5] = molecular target: T5, 382 unique human kinases (Homo sapiens, UniProt Q9HC98); conditions: NEK6; read-out: Control Compound IC50*
T5 construct: purchased Reaction Biology (HotSpot contract assay)

382 unique human kinases [6] = molecular target: T6, 382 unique human kinases (Homo sapiens, UniProt P37173); conditions: kinase TGFBR2; read-out: Control Compound IC50*
T6 construct: purchased Reaction Biology (HotSpot contract assay)
T6 sequence (P37173 23-567): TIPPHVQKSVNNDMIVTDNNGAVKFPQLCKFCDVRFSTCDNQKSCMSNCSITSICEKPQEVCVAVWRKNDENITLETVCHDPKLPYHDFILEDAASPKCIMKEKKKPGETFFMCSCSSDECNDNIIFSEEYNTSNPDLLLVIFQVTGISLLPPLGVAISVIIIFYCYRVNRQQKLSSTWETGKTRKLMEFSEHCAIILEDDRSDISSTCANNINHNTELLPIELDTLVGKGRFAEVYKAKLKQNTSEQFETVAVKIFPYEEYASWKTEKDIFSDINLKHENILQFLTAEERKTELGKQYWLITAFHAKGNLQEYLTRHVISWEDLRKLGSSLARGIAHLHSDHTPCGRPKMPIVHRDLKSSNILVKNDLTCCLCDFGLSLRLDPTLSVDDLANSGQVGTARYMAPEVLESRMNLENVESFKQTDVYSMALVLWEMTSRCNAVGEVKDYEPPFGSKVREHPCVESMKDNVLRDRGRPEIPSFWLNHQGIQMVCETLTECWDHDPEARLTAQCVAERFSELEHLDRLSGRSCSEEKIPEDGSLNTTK

T3 sequence (Q6IQ55 whole entry): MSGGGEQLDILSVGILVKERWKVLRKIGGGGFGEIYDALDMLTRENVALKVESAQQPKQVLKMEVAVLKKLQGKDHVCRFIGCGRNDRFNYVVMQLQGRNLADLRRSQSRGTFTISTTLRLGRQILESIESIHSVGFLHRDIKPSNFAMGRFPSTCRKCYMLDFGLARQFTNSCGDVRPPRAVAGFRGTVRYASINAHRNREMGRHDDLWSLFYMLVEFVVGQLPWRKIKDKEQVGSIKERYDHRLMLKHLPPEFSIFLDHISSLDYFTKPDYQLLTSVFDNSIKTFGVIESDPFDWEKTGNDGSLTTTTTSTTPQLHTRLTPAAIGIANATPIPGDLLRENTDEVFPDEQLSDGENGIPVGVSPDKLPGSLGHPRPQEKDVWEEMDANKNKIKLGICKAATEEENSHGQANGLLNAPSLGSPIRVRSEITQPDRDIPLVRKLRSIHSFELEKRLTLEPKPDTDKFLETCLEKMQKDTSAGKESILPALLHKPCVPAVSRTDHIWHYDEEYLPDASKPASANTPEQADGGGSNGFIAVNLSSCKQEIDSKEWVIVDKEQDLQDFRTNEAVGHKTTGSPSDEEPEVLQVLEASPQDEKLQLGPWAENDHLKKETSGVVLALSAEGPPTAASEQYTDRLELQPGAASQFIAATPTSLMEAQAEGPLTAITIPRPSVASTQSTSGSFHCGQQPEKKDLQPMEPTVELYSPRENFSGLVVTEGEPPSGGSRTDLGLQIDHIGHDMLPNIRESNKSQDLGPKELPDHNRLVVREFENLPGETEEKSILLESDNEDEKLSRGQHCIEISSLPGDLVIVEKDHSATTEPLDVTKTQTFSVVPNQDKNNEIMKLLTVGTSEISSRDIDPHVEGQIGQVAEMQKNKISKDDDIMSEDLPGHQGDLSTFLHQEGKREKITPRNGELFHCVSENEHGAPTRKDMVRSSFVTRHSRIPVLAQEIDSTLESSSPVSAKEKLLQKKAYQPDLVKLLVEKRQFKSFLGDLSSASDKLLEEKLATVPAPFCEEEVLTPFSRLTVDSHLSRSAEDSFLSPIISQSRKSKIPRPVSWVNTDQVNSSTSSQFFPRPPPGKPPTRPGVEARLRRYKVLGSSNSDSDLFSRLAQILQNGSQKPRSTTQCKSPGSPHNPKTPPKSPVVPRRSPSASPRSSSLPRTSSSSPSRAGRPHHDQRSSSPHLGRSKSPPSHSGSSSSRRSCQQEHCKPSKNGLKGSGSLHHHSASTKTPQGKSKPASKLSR
T5 sequence (Q9HC98 whole entry): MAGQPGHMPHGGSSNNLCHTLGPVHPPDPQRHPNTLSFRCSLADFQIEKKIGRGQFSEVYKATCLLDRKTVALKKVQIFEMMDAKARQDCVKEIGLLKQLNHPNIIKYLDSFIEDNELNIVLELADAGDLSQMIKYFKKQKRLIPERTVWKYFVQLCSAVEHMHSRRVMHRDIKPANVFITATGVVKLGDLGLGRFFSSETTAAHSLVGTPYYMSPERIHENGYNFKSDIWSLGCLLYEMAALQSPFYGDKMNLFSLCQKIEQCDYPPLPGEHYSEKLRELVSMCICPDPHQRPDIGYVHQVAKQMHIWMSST
T2 sequence (P27361 whole entry): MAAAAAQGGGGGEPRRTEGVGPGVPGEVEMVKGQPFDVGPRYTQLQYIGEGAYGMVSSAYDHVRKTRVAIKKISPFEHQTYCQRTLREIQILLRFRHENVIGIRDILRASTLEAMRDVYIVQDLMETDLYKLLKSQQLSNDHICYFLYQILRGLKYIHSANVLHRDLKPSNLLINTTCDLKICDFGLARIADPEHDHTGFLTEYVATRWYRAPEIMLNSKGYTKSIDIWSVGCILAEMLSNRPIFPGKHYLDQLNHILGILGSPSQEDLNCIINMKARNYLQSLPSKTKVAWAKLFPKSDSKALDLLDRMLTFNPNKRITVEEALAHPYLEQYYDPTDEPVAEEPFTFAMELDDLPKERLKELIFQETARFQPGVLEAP
T1 sequence (Q9BQI3 whole entry): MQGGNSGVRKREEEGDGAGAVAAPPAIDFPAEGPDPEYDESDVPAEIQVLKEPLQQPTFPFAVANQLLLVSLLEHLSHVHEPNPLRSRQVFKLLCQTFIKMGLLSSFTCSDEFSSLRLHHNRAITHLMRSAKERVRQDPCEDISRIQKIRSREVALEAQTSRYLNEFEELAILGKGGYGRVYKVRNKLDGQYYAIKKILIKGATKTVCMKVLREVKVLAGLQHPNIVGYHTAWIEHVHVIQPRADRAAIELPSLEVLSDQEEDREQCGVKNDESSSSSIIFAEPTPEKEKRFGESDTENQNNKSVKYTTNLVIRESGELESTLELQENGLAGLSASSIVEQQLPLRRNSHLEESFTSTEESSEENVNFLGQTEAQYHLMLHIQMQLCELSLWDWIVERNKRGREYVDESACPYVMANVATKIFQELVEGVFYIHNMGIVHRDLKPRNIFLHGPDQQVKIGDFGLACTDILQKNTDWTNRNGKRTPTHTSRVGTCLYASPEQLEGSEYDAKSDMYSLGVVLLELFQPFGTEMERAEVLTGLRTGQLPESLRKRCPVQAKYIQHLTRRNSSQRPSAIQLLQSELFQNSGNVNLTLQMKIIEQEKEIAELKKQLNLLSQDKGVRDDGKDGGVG
T4 sequence (Q8TDX7 whole entry): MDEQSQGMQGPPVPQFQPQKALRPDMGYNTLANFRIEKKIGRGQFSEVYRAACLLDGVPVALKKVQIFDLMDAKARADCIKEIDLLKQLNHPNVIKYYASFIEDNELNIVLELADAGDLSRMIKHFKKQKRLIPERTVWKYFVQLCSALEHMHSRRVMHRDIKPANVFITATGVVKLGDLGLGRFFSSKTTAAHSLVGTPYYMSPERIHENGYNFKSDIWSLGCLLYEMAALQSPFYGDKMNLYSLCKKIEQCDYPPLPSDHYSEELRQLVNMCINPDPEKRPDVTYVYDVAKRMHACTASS

With `Cn1cc(-c2ccc3c(c2)CCN3C(=O)Cc2cccc(C(F)(F)F)c2)c2c(N)ncnc21` [GSK-2606414] the IC50 (382 unique human kinases [1]) was 92.1 nM.

In the case of `O=C(Nc1ccc2[nH]nc(-c3ccncc3)c2c1)[C@@H]1CCN(CC(=O)N2CCN(c3ccc(-c4ncccn4)cc3)CC2)C1` [SCH772984], the IC50 (382 unique human kinases [2]) is reported as 9.81 nM.

`Oc1ccc(-c2nc(-c3ccncc3)c(-c3ccc(F)cc3)[nH]2)cc1` [SB202190] gave an IC50 (382 unique human kinases [3]) of 9.41 µM.

`O=C1Nc2ccc3ncsc3c2/C1=C/c1cnc[nH]1` [PKR Inhibitor] gave an IC50 (382 unique human kinases [4]) of 12.4 µM and an IC50 (382 unique human kinases [5]) of 35.5 µM.

For `c1ccc2c(-c3cnn4cc(-c5ccc(N6CCNCC6)cc5)cnc34)ccnc2c1` [LDN193189], the IC50 (382 unique human kinases [6]) was 165 nM.
